The values that follow come from patent publication US8722670B2, “Selective NR2B antagonists” (Bristol-Myers Squibb Company, priority 2011, dated 2014).

The assay concerns the target T1, hNR2B (Homo sapiens, UniProt Q05586+Q13224).
T1 construct: expressed in transfected cells; host or cells: Xenopus laevis oocytes, cRNA-injected
Briefly: Electrophysiology NMDA receptor experiments: two electrode voltage-clamp in Xenopus laevis oocytes, hNR2B IC50. Conditions: 50 μM glutamate, 30 μM glycine. It is filed as cell-based. For orientation: In two-electrode clamp one electrode senses voltage and the other passes current.

Where [1] appears, read: voltage clamp -40 mV, read-out: hNR2B IC50.
Setting [2] is: hNR2B activity class, read-out: Activity.

Where two headings read alike, the source gives them in different places. Bounds are passed on as bounds.

T1 sequence (Q13224 27-1484, other chains not shown): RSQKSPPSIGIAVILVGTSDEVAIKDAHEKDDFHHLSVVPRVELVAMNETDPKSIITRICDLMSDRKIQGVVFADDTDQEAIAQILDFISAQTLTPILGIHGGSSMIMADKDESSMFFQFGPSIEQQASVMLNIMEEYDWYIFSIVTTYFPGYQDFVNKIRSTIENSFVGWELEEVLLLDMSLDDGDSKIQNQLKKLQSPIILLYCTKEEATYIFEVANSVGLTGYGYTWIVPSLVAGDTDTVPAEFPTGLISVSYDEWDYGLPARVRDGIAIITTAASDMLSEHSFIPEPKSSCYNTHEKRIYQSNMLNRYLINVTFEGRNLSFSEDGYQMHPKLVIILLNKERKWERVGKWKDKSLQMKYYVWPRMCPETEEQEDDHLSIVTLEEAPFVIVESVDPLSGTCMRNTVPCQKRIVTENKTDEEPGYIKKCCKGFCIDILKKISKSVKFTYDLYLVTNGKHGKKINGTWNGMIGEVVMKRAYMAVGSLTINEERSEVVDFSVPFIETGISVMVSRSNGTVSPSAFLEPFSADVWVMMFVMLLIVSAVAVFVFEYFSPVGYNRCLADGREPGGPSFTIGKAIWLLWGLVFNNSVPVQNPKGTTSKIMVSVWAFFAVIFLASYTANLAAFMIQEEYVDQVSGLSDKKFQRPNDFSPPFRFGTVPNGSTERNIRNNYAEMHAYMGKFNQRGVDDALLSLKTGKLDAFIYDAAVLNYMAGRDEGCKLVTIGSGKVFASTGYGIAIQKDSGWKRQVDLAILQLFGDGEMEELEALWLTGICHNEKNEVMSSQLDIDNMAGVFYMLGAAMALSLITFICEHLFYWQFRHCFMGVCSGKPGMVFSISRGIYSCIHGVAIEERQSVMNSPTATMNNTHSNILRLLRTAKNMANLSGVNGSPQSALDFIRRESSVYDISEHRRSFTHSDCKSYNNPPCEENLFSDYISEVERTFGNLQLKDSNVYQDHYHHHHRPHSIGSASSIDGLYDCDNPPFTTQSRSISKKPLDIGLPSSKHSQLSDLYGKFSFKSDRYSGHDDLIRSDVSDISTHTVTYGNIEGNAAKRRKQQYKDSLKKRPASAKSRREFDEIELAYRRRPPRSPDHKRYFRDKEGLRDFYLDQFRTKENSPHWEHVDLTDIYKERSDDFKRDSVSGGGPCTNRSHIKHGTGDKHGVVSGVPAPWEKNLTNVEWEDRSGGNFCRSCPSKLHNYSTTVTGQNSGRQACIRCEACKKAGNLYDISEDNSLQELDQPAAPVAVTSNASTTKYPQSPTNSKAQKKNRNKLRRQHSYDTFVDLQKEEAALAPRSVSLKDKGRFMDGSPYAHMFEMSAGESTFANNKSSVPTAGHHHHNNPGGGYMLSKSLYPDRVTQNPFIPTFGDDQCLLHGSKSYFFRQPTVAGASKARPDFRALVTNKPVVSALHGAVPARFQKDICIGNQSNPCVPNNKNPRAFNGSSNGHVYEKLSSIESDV
Method: Stage V and VI oocytes were surgically removed from the ovaries of large, well-fed and healthy Xenopus laevis anesthetized with 3-amino-benzoic acid ethyl ester (3 gm/l). […] Oocytes were then washed in the same solution supplemented with 1.8 mM CaCl2 and maintained in Barth's solution comprised of (in mM): 88 NaCl, 1 KCl, 2.4 NaHCO3, 10 HEPES, 0.82 MgSO4, 0.33 Ca(NO3)2, and 0.91 CaCl2 and supplemented with 100 μg/ml gentamycin, 10 μg/ml streptomycin, and 10 μg/ml penicillin.
Two electrode voltage-clamp recordings were made 2-7 days post-injection. Oocytes were placed in a dual-track plexiglass recording chamber with a single perfusion line that splits in a Y-configuration to perfuse two oocytes. Dual recordings were made at room temperature (23° C.) using two Warner OC725B two-electrode voltage clamp amplifiers, arranged as recommended by the manufacturer. Glass microelectrodes (1-10 Megaohms) were filled with 300 mM KCl (voltage electrode) or 3 M KCl (current electrode). The bath clamps communicated across silver chloride wires placed into each side of the recording chamber, both of which were assumed to be at a reference potential of 0 mV. Oocytes were perfused with a solution comprised of (in mM) 90 NaCl, 1 KCl, 10 HEPES, 10 EDTA and 0.5 BaCl2; pH 7.4, adjusted by addition of NaOH. Oocytes were recorded under voltage clamp at −40 mV. Final concentrations for glutamate and glycine were 50 μM and 30 μM, respectively. […] Dose response curves consisting of four to eight concentrations were obtained in this manner. The baseline leak current at −40 mV was measured before and after recording, and the full recording linearly corrected for any change in leak current. The level of inhibition by applied experimental compounds was expressed as a percent of the initial glutamate response, and averaged together across oocytes from multiple experiments.
For NMDA receptor subtype selectivity experiments human GluN1/GluN2A, GluN1/GluN2C, and GluN1/GluN2D cRNAs were expressed in Xenopus laevis as described above. Here, 10 μM concentrations of the antagonist was perfused with 50 μM glutamate and 30 μM glycine onto the oocyte for two min and the remaining current in the presence of the antagonist was compared to the maximal current obtained with 50 μM glutamate and 30 μM glycine alone (defined as 100%). When IC50 determinations were made against other NMDA receptor subtypes the protocol as described above was followed.

On to `Oc1ccc(CCc2nc(NCc3ccc(Cl)cc3)no2)cc1` [Example 200], for which the IC50 under setting [1] worked out at 320 nM.
Same read-out and setting: to `FC(F)Oc1ccc(Nc2noc(CCc3ccc4[nH]ncc4c3)n2)cc1` [Example 201] belongs 470 nM.
With `Clc1ccc(Nc2noc(CCCc3ccc4[nH]ncc4c3)n2)cc1Cl` [Example 202], the IC50 under setting [2] was above 10000 nM.
Still for that read-out and setting: to `FC(F)(F)c1ccc(Nc2noc(CCCc3ccc4[nH]ncc4c3)n2)cc1` [Example 203] belongs above 10000 nM; to `O=c1ccc2cc(CCc3nc(Nc4ccc(Cl)c(Cl)c4)no3)ccc2[nH]1` [Example 204], 201 to 1000 nM; to `FC(F)Oc1ccc(Nc2noc(CCc3ccc4[nH]ncc4c3)n2)cc1Cl` [Example 205], above 10000 nM.
The same measure, in the same setting: for `FC(F)Oc1ccc(Nc2noc(CCCc3ccc4[nH]ncc4c3)n2)cc1Cl` [Example 206] the value was 1000 to 10000 nM.
Turning to `FC(F)Oc1ccc(Nc2noc(CCNc3ncnc4[nH]ncc34)n2)cc1Cl` [Example 207], the IC50 under setting [2] was below 200 nM.
For `O=c1ccc2cc(CCc3nc(Nc4ccc(OC(F)F)c(Cl)c4)no3)ccc2[nH]1` [Example 208], under setting [1], the IC50 turned out to be 11 nM.
In the case of `Cc1ccc(Nc2noc(CCc3ccc4[nH]ncc4c3)n2)cc1F` [Example 209], under setting [1], the IC50 worked out at 19 nM.
For `Fc1cc(Nc2noc(CCc3ccc4[nH]ncc4c3)n2)ccc1OC(F)F` [Example 210], the IC50 under setting [2] was below 200 nM.
Same read-out and setting: to `CCc1ccc(Nc2noc(CCc3ccc4[nH]ncc4c3)n2)cc1` [Example 211] belongs below 200 nM.
With `CCc1ccc(Nc2noc(CCc3ccc4[nH]ncc4c3)n2)cc1Cl` [Example 212], under setting [2], the IC50 lay in the range of 201 to 1000 nM.
Consider `COc1ccc(Nc2noc(CCc3ccc4[nH]ncc4c3)n2)cc1C` [Example 213], for which, under setting [2], the IC50 lay in the range of 1000 to 10000 nM.
On the same count and under the same terms, to `Cc1cc(Nc2noc(CCc3ccc4[nH]ncc4c3)n2)ccc1OC(F)F` [Example 214] belongs 201 to 1000 nM; to `CCc1ccc(Nc2noc(CCc3ccc4[nH]ncc4c3)n2)cc1F` [Example 215], below 200 nM.
The same measure, in the same setting: to `Fc1ccc(Nc2noc(CCc3ccc4[nH]ncc4c3)n2)cc1C(F)F` [Example 216] belongs 201 to 1000 nM; to `Oc1ccc(CCc2nc(Nc3ccc(OC(F)F)c(F)c3)no2)cc1` [Example 219], below 200 nM; to `Oc1ccc(CCc2nc(Nc3ccc(C(F)(F)F)cc3)no2)cc1` [Example 223], 201 to 1000 nM.
Same read-out and setting: for `Oc1ccc(CCc2nc(Nc3ccc(OC(F)(F)F)cc3)no2)cc1` [Example 224] the value was 201 to 1000 nM.
With `Oc1ccc(CCc2nc(Nc3ccc(Cl)cc3)no2)cc1` [Example 225], the IC50 under setting [2] is 201 to 1000 nM.
On the same count and under the same terms, to `Oc1ccc(CCc2nc(Nc3ccc(OC(F)F)cc3)no2)cc1` [Example 226] belongs 201 to 1000 nM; to `Fc1cc(Nc2noc(CCc3ccc4cn[nH]c4c3)n2)ccc1Cl` [Example 227], above 10000 nM; to `Fc1cc(Nc2noc(CCc3cccc4[nH]ncc34)n2)ccc1Cl` [Example 228], 1000 to 10000 nM.
`FC(F)Oc1ccc(Nc2noc(CCc3ccc4cn[nH]c4c3)n2)cc1Cl` [Example 230]: under setting [2], the IC50 was below 200 nM.
On the same count and under the same terms, to `FC(F)Oc1ccc(Nc2noc(CCc3cccc4[nH]ncc34)n2)cc1Cl` [Example 231] belongs 1000 to 10000 nM; to `Oc1ccc(CCc2nc(Nc3ccc(Cl)c(Cl)c3)no2)cc1` [Example 232], 1000 to 10000 nM; to `Fc1cc(Nc2noc(CCc3cnc4[nH]ncc4c3)n2)ccc1OC(F)F` [Example 233], below 200 nM.
Consider `FC(F)Oc1ccc(Nc2noc(CCc3ccc4[nH]nc(Cl)c4c3)n2)cc1Cl` [Example 234], for which the IC50 under setting [2] lay within 1000 to 10000 nM.
For the compound `Cc1cc(Nc2noc(C3CC3c3ccc4[nH]c(=O)ccc4c3)n2)ccc1OC(F)F` (stereo not drawn) [Example 235, 6-(2-(3-((4-(difluoromethoxy)-3-methylphenyl)amino)-1,2,4-oxadiazol-5-yl)cyclopropyl)quinolin-2(1H)-one], under setting [1], the IC50 came out at 44 nM.
Turning to `Cc1cc(Nc2noc(C3CC3c3ccc4[nH]ncc4c3)n2)ccc1OC(F)F` (stereo not drawn) [Example 236], the IC50 under setting [2] is 201 to 1000 nM.
Same read-out and setting: to `Fc1cc(Nc2noc(C3CC3c3ccc4[nH]ncc4c3)n2)ccc1OC(F)F` (stereo not drawn) [Example 238] belongs below 200 nM.
For `O=C1CCc2cc(OCc3noc(Nc4ccc(Cl)c(Cl)c4)n3)ccc2N1` [Example 239, 6-((5-((3,4-dichlorophenyl)amino)-1,2,4-oxadiazol-3-yl)methoxy)-3,4-dihydroquinolin-2(1H)-one], the IC50 under setting [1] is 3600 nM.
The same measure, in the same setting: for `O=C1CCc2cc(OCc3nnc(Nc4ccc(Cl)c(Cl)c4)s3)ccc2N1` [Example 240] the value was 266 nM; for `O=c1ccc2cc(OCc3nnc(Nc4ccc(C(F)(F)F)cc4)s3)ccc2[nH]1` [Example 241], 30 nM.
For `O=C1CCc2cc(OCc3nnc(Nc4ccc(C(F)(F)F)cc4)s3)ccc2N1` [Example 242], the IC50 under setting [2] was below 200 nM.
Still for that read-out and setting: to `O=c1ccc2cc(OCc3nnc(Nc4ccc(Cl)c(Cl)c4)s3)ccc2[nH]1` [Example 243] belongs below 200 nM.
On the same count and under the same terms, to `O=c1ccc2cc(OCc3nnc(Nc4ccc(Cl)cc4)s3)ccc2[nH]1` [Example 244] belongs below 200 nM; to `O=c1ccc2cc(OCc3nnc(Nc4ccc(OC(F)(F)F)cc4)s3)ccc2[nH]1` [Example 245], below 200 nM; to `O=C1CCc2cc(OCc3nnc(Nc4ccc(OC(F)(F)F)cc4)s3)ccc2N1` [Example 247], below 200 nM.
The same measure, in the same setting: for `O=C1CCc2cc(OCc3nnc(NCc4ccc(Cl)c(Cl)c4)s3)ccc2N1` [Example 248] the value was 201 to 1000 nM; for `O=c1ccc2cc(OCc3nnc(NCc4ccc(Cl)c(Cl)c4)s3)ccc2[nH]1` [Example 249], 201 to 1000 nM.
For `O=C1CCc2cc(OCc3nnc(Nc4ccc(Cl)cc4)s3)ccc2N1` [Example 250], the IC50 under setting [2] fell in the range of 201 to 1000 nM.
`O=c1ccc2cc(OCc3nnc(NCc4ccc(Cl)nc4)s3)ccc2[nH]1` [Example 251]: the IC50 under setting [1] was 9400 nM.
Still for that read-out and setting: to `O=C1CCc2cc(OCc3csc(Nc4ccc(Cl)c(Cl)c4)n3)ccc2N1` [Example 252, 6-((2-(3,4-dichlorophenylamino)thiazol-4-yl)methoxy)-3,4-dihydroquinolin-2(1H)-one] belongs 24000 nM; to `O=c1ccc2cc(OCc3cc(NCc4ccc(OC(F)F)cc4)no3)ccc2[nH]1` [Example 253, 6-((3-(4-(difluoromethoxy)benzylamino)isoxazol-5-yl)methoxy)quinolin-2(1H)-one], 321 nM.
Same read-out and setting: for `O=c1ccc2cc(OCc3cc(Nc4ccc(Cl)c(Cl)c4)no3)ccc2[nH]1` [Example 254] the value was 193 nM.
In the case of `O=c1ccc2cc(OCc3cc(Nc4ccc(OC(F)F)c(Cl)c4)no3)ccc2[nH]1` [Example 255], the IC50 under setting [2] was below 200 nM.
Still for that read-out and setting: for `O=c1ccc2cc(OCc3cc(Nc4ccc(Cl)c(F)c4)no3)ccc2[nH]1` [Example 256] the value was below 200 nM.
As to `O=c1ccc2cc(OCc3cc(Nc4ccc(Cl)c(F)c4)no3)ccc2[nH]1` [Example 257], the IC50 under setting [1] turned out to be 10 nM.
For the compound `FC(F)Oc1ccc(Nc2cc(COc3ccc4[nH]ncc4c3)on2)cc1Cl` [Example 258], the IC50 under setting [2] was below 200 nM.
Still for that read-out and setting: for `O=c1ccc2cc(OCc3cc(Nc4ccc(OC(F)F)cc4)no3)ccc2[nH]1` [Example 260] the value was below 200 nM.
Same read-out and setting: for `COc1ccc(Nc2cc(COc3ccc4[nH]c(=O)ccc4c3)on2)cc1Cl` [Example 261] the value was below 200 nM; for `Cc1ccc(Nc2cc(COc3ccc4[nH]c(=O)ccc4c3)on2)cc1C` [Example 262], 1000 to 10000 nM.
Same read-out and setting: for `O=c1ccc2cc(OCc3cc(Nc4ccc(Cl)c(C(F)(F)F)c4)no3)ccc2[nH]1` [Example 263] the value was 1000 to 10000 nM; for `O=c1ccc2cc(OCc3cc(Nc4ccc(C(F)(F)F)cc4)no3)ccc2[nH]1` [Example 264], below 200 nM; for `CCc1ccc(Nc2cc(COc3ccc4[nH]c(=O)ccc4c3)on2)cc1` [Example 265], below 200 nM.
Consider `CCCc1ccc(Nc2cc(COc3ccc4[nH]c(=O)ccc4c3)on2)cc1` [Example 266], for which the IC50 under setting [2] is above 10000 nM.
The same measure, in the same setting: for `O=c1ccc2cc(OCc3cc(Nc4ccc(OC(F)F)c(F)c4)no3)ccc2[nH]1` [Example 267] the value was below 200 nM; for `Cc1cc(Nc2cc(COc3ccc4[nH]c(=O)ccc4c3)on2)ccc1OC(F)F` [Example 268], below 200 nM; for `O=c1ccc2cc(OCc3cc(Nc4ccc(C(F)(F)F)c(Cl)c4)no3)ccc2[nH]1` [Example 269], below 200 nM.
The same measure, in the same setting: to `Cc1cc(Nc2cc(COc3ccc4[nH]c(=O)ccc4c3)on2)ccc1F` [Example 270] belongs 1000 to 10000 nM.
On the same count and under the same terms, for `Cc1ccc(Nc2cc(COc3ccc4[nH]ncc4c3)on2)cc1F` [Example 271] the value was below 200 nM; for `Cc1cc(Nc2cc(COc3ccc4[nH]ncc4c3)on2)ccc1OC(F)F` [Example 272], below 200 nM.
Regarding `CCc1ccc(Nc2cc(COc3ccc4[nH]ncc4c3)on2)cc1` [Example 273], the IC50 under setting [2] lay within 1000 to 10000 nM.
Same read-out and setting: to `Fc1cc(Nc2cc(COc3ccc4[nH]ncc4c3)on2)ccc1OC(F)F` [Example 274] belongs below 200 nM.
Still for that read-out and setting: for `FC(F)Oc1ccc(Nc2cc(COc3ccc4[nH]ncc4c3)on2)cc1` [Example 275] the value was below 200 nM.
As for `Cn1c(COc2ccc3[nH]c(=O)ccc3c2)nnc1Nc1ccc(Cl)c(Cl)c1` [Example 276, 6-((5-(3,4-dichlorophenylamino)-4-methyl-4H-1,2,4-triazol-3-yl)methoxy)quinolin-2(1H)-one], the IC50 under setting [1] is 24 nM.
On the same count and under the same terms, to `Cn1c(CCc2ccc3[nH]ncc3c2)nnc1Nc1ccc(OC(F)F)cc1` [Example 277, 5-(2-(1H-indazol-5-yl)ethyl)-N-(4-(difluoromethoxy)phenyl)-4-methyl-4H-1,2,4-triazol-3-amine] belongs 104 nM; to `Cn1c(COc2ccc3[nH]c(=O)ccc3c2)nnc1Nc1ccc(OC(F)F)cc1` [Example 278], 90 nM.
With `Cn1c(COc2ccc3[nH]c(=O)ccc3c2)nnc1Nc1ccc(OC(F)(F)F)cc1` [Example 279], under setting [2], the IC50 was below 200 nM.
The same measure, in the same setting: for `Cn1c(CCNc2ncnc3[nH]ncc23)nnc1Nc1ccc(OC(F)F)cc1` [Example 280] the value was below 200 nM.
